Reference: patent publication US11976083B2, “Inhibitors of peptidylarginine deiminases” (Gilead Sciences, Inc., priority 2020, dated 2024)

Biological target: T1, human PAD4 (Homo sapiens, UniProt Q9UM07)
T1 construct: human PAD4 (NM_012387), A2-P663, was PCR amplified; His-SUMO (N, cleaved yes); made in house; host or cells: E. coli BL21(DE3)
Test: In vitro PAD4 BAEE biochemical assay
Details: BAEE substrate 3 mM, 5 nM PAD4, 2 mM calcium chloride; geometric mean of multiple experiments
Method in brief: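 Recombinant PAD4 (5 nM final) with 2 mM CaCl2 was preincubated with compound for 30 min at 25 °C in MOPS pH 7.6 buffer with DTT, then reacted with 3 mM BAEE for 2 h at 25 °C. Released ammonia was detected fluorimetrically with o-phthalaldehyde/DTT; IC50 from four-parameter fit, geometric mean of experiments.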

T1 sequence (Q9UM07 2-663): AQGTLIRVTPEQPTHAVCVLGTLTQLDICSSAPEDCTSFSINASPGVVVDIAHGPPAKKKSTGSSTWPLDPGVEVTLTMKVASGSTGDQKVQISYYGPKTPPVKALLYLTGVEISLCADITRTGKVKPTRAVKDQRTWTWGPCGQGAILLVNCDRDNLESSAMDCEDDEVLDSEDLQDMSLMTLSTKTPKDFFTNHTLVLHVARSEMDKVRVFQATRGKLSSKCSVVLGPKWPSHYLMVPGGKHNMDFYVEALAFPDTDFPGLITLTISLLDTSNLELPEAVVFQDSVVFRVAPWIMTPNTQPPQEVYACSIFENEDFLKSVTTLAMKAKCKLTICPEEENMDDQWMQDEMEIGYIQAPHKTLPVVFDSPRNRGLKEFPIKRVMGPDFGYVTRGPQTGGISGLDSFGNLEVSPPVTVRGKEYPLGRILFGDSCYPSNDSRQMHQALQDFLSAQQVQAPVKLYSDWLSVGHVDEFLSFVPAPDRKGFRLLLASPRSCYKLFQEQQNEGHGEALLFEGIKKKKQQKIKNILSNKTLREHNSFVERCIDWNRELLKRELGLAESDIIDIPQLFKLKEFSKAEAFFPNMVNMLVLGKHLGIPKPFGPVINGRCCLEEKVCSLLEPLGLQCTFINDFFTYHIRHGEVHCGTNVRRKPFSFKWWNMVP

SMILES	IC50 [nM]
COc1cc(C(=O)N2C[C@@H]3NCCO[C@@H]3C[C@@H]2C)cc2nc(-c3cc4ccc5nc4n3CC(F)(F)CCC[C@@H]3C[C@H]3C(=O)N[C@@H]5C)n(C)c12 [Example 801, (2~{R},5~{R},7~{R})-14-[5-[(4~{a}~{S),7~{S},8~{a}~ {R})-7-methyl-2,3,4,4~{a}, 5,7,8,8~{a}-octahydropyrido [4,3-b][1,4]oxazine-6-carbonyl]-7-methoxy-1-methyl-benzimidazol-2-yl]-11,11-difluoro-2-methyl-3,13,19-triazatetracyclo[11.5.2.0^ {5,7}.0^{16,20}]icosa-1(18),14,16,19-tetraen-4-one]	334
COc1cc(C(=O)N2[C@H]3CC[C@@H]2[C@H](N)C3)cc2nc(-c3cc4ccc5nc4n3CCCCCCCN(C)C(=O)N[C@@H]5C)c(C)n12 [Example 211, (12~{R})-18-[7-[(1~{R},2~{R},4~{S})-2-amino-7-azabicyclo[2.2.1]heptane-7-carbonyl]-5-methoxy-3-methyl-imidazo[1,2-a]pyridin-2-yl]-9,12-dimethyl-1,9,11,20-tetrazatricyclo[11.5.2.0^{16,19}]icosa-13(20),14,16(19),17-tetraen-10-one]	34
COc1cc(C(=O)N2C[C@H](N)[C@@H]3CC[C@H]2C3)cc2nc(-c3cc4ccc5nc4n3CCCCCc3nc(Cl)ccc3C(=O)NC5(C)C)n(C)c12 [Example 932, 17-[5-[(1~{S},4~{R},5~{R})-4-amino-2-azabicyclo[3.2.1]octane-2-carbonyl]-7-methoxy-1-methyl-benzimidazol-2-yl]-8-chloro-2,2-dimethyl-3,9,16,22-tetrazatetracyclo[14.5.2.0^ {5,10}.0^{19,23}]tricosa-1(21),5(10),6,8,17,19,22-heptaen-4-one]	58
COc1cc(C(=O)N[C@H]2CNCC[C@@H]2F)cc2nc(-c3cc4ccc5nc4n3C[C@H]3C[C@H]3CCCC(C)(C)C(=O)N[C@@H]5C)n(C)c12 [Example 367, ~{N}-[(3~{S},4~{S})-4-fluoro-3-piperidyl]-7-methoxy-1-methyl-2-[(3~{S},5~{R},12~{R})-9,9,12-trimethyl-10-oxo-1,11,20-triazatetracyclo[11.5.2.0^{3,5}.0^{16,19}]icosa-13(20),14,16(19),17-tetraen-18-yl]benzimidazole-5-carboxamide]	82
C[C@H]1NC(=O)[C@@H]2C[C@H]2CCCC(F)(F)Cn2c(-c3nc4cc(C(=O)N5C[C@H](N)[C@@H]6CC[C@H]5C6)cc(F)c4n3[C@H]3C[C@@H]3C(F)F)cc3ccc1nc32 (single isomer, unassigned) [Example 453, (2~{R},5~{R},7~{R})-14-[5-[(1~{S},4~{R},5~{R})-4-amino-2-azabicyclo[3.2.1]octane-2-carbonyl]-1-[(1~{S},2~{S})-2-(difluoromethyl)cyclopropyl]-7-fluoro-benzimidazol-2-yl]-11,11-difluoro-2-methyl-3,13,19-triazatetracyclo[11.5.2.0^{5,7}.0^{16,20}] icosa-1(19),14,16(20),17-tetraen-4-one]	53

The next compounds have a lower IC50 than those just listed; values first:

IC50 [nM]	SMILES
22	CO[C@@H]1CCN(C(=O)c2cc(F)c3c(c2)nc(-c2cc4ccc5nc4n2CC(F)(F)CCC[C@@H]2C[C@H]2C(=O)N[C@@H]5C)n3C2C[C@H]2F)C[C@@H]1N (stereo partly shown) [Example 745, (2~{R},5~{R},7~{R})-14-[5-[(3~{S},4~{R})-3-amino-4-methoxy-piperidine-1-carbonyl]-7-fluoro-1-[(1~{S},2~{R})-2-fluorocyclopropyl]benzimidazol-2-yl]-11,11-difluoro-2-methyl-3,13,19-triazatetracyclo [11.5.2.0^{5,7}.0^{16,20}]icosa-1(19),14,16(20),17-tetraen-4-one]
27	COc1cc(C(=O)N2C[C@H](N)[C@@H]3CC[C@H]2C3)cc2nc(-c3cc4ccc5nc4n3CCCCC[C@]3(F)C[C@H]3C(=O)NC5(C)C)n(C)c12 [Example 933, (5~{S},7~{S})-14-[5-[(1~{S},4~{R},5~{R})-4-amino-2-azabicyclo[3.2.1]octane-2-carbonyl]-7-methoxy-1-methyl-benzimidazol-2-yl]-7-fluoro-2,2-dimethyl-3,13,19-triazatetracyclo[11.5.2.0^ {5,7}.0^{16,20}]icosa-1(18), 14,16,19-tetraen-4-one]
